Assay results reported in ChEMBL document CHEMBL1143406 (Antimicrob Agents Chemother, 2007).

Tests used:
Assay type in all cases: ADME, organism-based
[1] = Cmax in HIV-negative human at 600 mg, po administered every 24 hrs coadministered with 400 mg of atazanavir every 12 hrs; parameters: dose 600 mg, route oral; conditions: in vivo
[2] = AUC (24 hrs) in HIV-negative human at 600 mg, po administered every 24 hrs coadministered with 300 mg of atazanavir every 12 hrs; parameters: dose 600 mg, time < 24 hr, route oral; conditions: plasma
[3] = Tmax in HIV-negative human at 600 mg, po administered every 24 hrs coadministered with 400 mg of atazanavir every 12 hrs; conditions: in vivo
[4] = Tmax in HIV-negative human at 600 mg, po administered every 24 hrs coadministered with 300 mg of atazanavir every 12 hrs; conditions: in vivo
[5] = Apparent oral clearance in HIV-negative human at 600 mg, po administered every 24 hrs coadministered with 300 mg of atazanavir every 12 hrs; conditions: in vivo
[6] = Cmax in HIV-negative human at 600 mg, po administered every 24 hrs coadministered with 300 mg of atazanavir every 12 hrs; parameters: dose 600 mg, route oral; conditions: in vivo
[7] = Apparent oral clearance in HIV-negative human at 600 mg, po administered every 24 hrs coadministered with 400 mg of atazanavir every 12 hrs; conditions: in vivo
Homo sapiens [8] = assay: Terminal apparent distribution volume in HIV-negative human at 600 mg, po administered every 24 hrs coadministered with 300 mg of atazanavir every 12 hrs; conditions: in vivo
[9] = AUC (24 hrs) in HIV-negative human at 600 mg, po administered every 24 hrs coadministered with 400 mg of atazanavir every 12 hrs; parameters: time < 24 hr, dose 600 mg, route oral; conditions: plasma
Homo sapiens [10] = assay: Terminal apparent distribution volume in HIV-negative human at 600 mg, po administered every 24 hrs coadministered with 400 mg of atazanavir every 12 hrs; conditions: in vivo

In the case of CO[C@H]1/C=C/O[C@@]2(C)Oc3c(C)c(O)c4c(O)c(c(/C=N/N5CCN(C)CC5)c(O)c4c3C2=O)NC(=O)/C(C)=C\C=C\[C@H](C)[C@H](O)[C@@H](C)[C@@H](O)[C@@H](C)[C@H](OC(C)=O)[C@@H]1C [RIFAMPIN], the Cmax [1] was 10100 ng/mL, the AUC at 24 h [2] was 45700 ng·h/mL and the Tmax [3] was 2.7 h. It also gave a Tmax [4] of 2.7 h, a CL/F [5] of 252 mL/min and a Cmax [6] of 9490 ng/mL. For the same compound, the CL/F [7] was 275 mL/min, the Vbeta (Homo sapiens [8]) was 32 L and the AUC at 24 h [9] was 41700 ng·h/mL. The Vbeta (Homo sapiens [10]) was 33 L.
